target: T1, Tyrosine-protein kinase TEC (Mus musculus, UniProt Q8CFK4); assay: Binding affinity to mouse Tec kinase SH3 domain by NMR chemical shift perturbation; No binding
T1 sequence (Q8CFK4 whole entry): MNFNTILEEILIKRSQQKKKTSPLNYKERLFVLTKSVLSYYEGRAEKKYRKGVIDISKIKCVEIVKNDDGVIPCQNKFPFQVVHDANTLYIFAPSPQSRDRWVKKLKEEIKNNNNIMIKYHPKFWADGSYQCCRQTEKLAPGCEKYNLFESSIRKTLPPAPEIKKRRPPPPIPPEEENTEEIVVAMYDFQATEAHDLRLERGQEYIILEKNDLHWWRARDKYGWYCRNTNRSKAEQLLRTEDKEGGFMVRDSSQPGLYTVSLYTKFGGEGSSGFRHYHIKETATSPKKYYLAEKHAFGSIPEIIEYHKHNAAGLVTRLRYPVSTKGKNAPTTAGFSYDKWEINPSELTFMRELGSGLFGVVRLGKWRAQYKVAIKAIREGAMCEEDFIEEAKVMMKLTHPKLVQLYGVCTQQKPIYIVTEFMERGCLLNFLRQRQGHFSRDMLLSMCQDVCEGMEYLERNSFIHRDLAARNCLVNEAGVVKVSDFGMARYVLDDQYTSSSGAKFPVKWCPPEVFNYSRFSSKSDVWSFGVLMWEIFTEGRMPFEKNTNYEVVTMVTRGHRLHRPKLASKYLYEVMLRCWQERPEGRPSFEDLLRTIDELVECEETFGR

| Structure (SMILES) | Kd |
| --- | --- |
| Nc1ncccn1 | Not Active |

target: T1, Tyrosine-protein kinase TEC; assay: as above; remark: another data set of the same source

| Structure (SMILES) | Kd |
| --- | --- |
| CC(=O)Nc1ccc2ccccc2n1 | Not Active |
| c1ccc2ncccc2c1 [QUINOLINE] | Not Active |
| O=c1ccc2ccccc2[nH]1 | Not Active |
| Nc1ccc2ccccc2c1 [NAPHTHYLAMINE] | Not Active |

tested on: not listed separately; assay: Ionization constant (pKa) for the compound; type: physicochemical; call rule not given here

| Structure (SMILES) | pKa |
| --- | --- |
| Nc1ncc2ccccc2n1 | 4.82 |
| Nc1ncccn1 | 3.54 |

target: SH2/SH3 adapter protein NCK1 (Homo sapiens, UniProt P16333); assay: Displacement of PRP-1 peptide from human Nck […] SH3 domain by fluorescence polarization

| Structure (SMILES) | EC50 |
| --- | --- |
| Nc1ccc2cc(C3OCCO3)ccc2n1 | 300 µM |
| Nc1ccc2cc(C3OCCCO3)ccc2n1 | > 500 µM |
| Cc1ccc2nc(N)ccc2c1 | 90 µM |

target: T1, Tyrosine-protein kinase TEC; assay: Displacement of PRP-1 peptide from mouse Tec kinase SH3 domain by fluorescence polarization

| Structure (SMILES) | EC50 |
| --- | --- |
| Nc1ccc2cc(C3OCCO3)ccc2n1 | 34 µM |
| Nc1ccc2cc(C3OCCCO3)ccc2n1 | 26 µM |
| Nc1ccc2cc(Br)ccc2n1 | 58 µM |
| COc1ccc2nc(N)ccc2c1 | 63 µM |
| Nc1ccc2cc(F)ccc2n1 | 150 µM |
| Cc1ccc2nc(N)ccc2c1 | 75 µM |
| Nc1ccc2cc(Cl)ccc2n1 | 76 µM |

target: T1, Tyrosine-protein kinase TEC; assay: Displacement of PRP-1 peptide from mouse Tec kinase SH3 domain by fluorescence polarization; No competition

| Structure (SMILES) | EC50 |
| --- | --- |
| Nc1ccc2cccc(O)c2n1 | Not Active |

target: T1, Tyrosine-protein kinase TEC; assay: Binding affinity to mouse Tec kinase SH3 domain by NMR chemical shift perturbation

| Structure (SMILES) | Kd |
| --- | --- |
| Nc1ccc2cc(C3OCCO3)ccc2n1 | 40 µM |
| Nc1ccc2cc(C3OCCCO3)ccc2n1 | 52 µM |
| Nc1ccccn1 [2-AMINOPYRIDINE] | > 4000 µM |
| CNc1ccc2ccccc2n1 | 380 µM |
| CC1(C)COC(c2ccc3nc(N)ccc3c2)OC1 | 22 µM |
| Cc1ccc2nc(N)ccc2c1 | 61 µM |

— ChEMBL document CHEMBL1137981, “Identification and specificity studies of small-molecule ligands for SH3 protein domains” (J Med Chem, 2004)
